ChEMBL document CHEMBL1157539, “Thousands of chemical starting points for antimalarial lead identification” (Nature, 2010)

Each molecule was assayed on Plasmodium falciparum (assay: GSK_TCMDC: Inhibition of Plasmodium falciparum 3D7 in whole erythrocytes, using parasite LDH activity as an index of growth.). Settings: Plasmodium falciparum, 3D7.
Format: functional, organism-based

Row | SMILES | XC50 [nM]
1 | COc1ccc(Nc2nc(N/N=C/c3ccc(-c4ccc([N+](=O)[O-])cc4)o3)nc(Nc3ccccc3)n2)cc1 | 761
2 | Cc1ccc(Nc2nc(N/N=C/c3ccccc3[N+](=O)[O-])nc(Nc3ccc([N+](=O)[O-])cc3)n2)cc1C | 692
3 | CC(C)N(Cc1ccc(-c2ccc(C(F)(F)F)cc2)cc1)C(=O)Cn1c(CCc2cccc(F)c2F)cc(=O)c2ccc(CCCN3CCCCC3)cc21 | 736
4 | O=C(Cn1c(CCc2cccc(F)c2F)cc(=O)c2ccccc21)N(CCN1CCCCC1)Cc1ccc(-c2ccc(C(F)(F)F)cc2)cc1 | 764
5 | O=C(/C=C/c1ccc(Cl)c(Cl)c1)NCCCCCN1CCCN(C(=O)Nc2ccc(Cl)c(Cl)c2)CC1 | 864
6 | CCOC(=O)c1ccc(NC(=O)Nc2cccc(-c3cccc(-c4nc5cc(F)ccc5[nH]4)c3)c2)cc1 | 94.7
7 | FC(F)(F)c1ccc2[nH]c(-c3ccc(-c4cccc(CNCCc5cccnc5)c4)s3)nc2c1 | 170
8 | CCN1CCN(Cc2ccc3nc(-c4cc(C)n(Cc5cc(Cl)ccc5OCc5ccccc5)n4)[nH]c3c2)CC1 | 770
9 | CCCOc1cccc(C(=O)N[C@@H](Cc2ccccc2)[C@H](O)CNCc2cccc(OC)c2)c1 | 741
10 | O=C(NC1CCN(Cc2ccc3c(c2)OCCO3)CC1)c1ccc(-c2cccc(Cl)c2)s1 | 1910
11 | CCCCC(O)c1cc(O)c2c(c1)OC(C)(C)CC2C1=CCN(Cc2ccc3ccccc3c2)CC1 (stereo unspecified) | 970
12 | COc1ccccc1C(C)NCC(=O)Nc1ccccc1Sc1ccccc1 (stereo unspecified) | 1100
13 | NCc1ccc(CNCc2cccc(-c3cccc(-c4nc5ccccc5[nH]4)c3)c2)cc1 | 489
14 | O=S(=O)(Nc1cccc(CCN2CCC(N3CCCCC3)CC2)c1)c1ccccc1C(F)(F)F | 1150
15 | N=C(N)NCCCCN(Cc1ccccc1)c1ccccc1 | 745
16 | Fc1ccc2[nH]c(-c3cccc(-c4ccc(CNCc5cnn(-c6ccccc6)n5)cc4)c3)nc2c1 | 917
17 | O=C(Nc1cccc(C(F)(F)F)c1)Nc1ccc2nonc2c1 | 849
18 | CCCCCCN1CCCN(Cc2cccc(C(=O)Nc3ccc(C(C)(C)C)cc3)c2)CC1 | 943
19 | Cc1noc(C)c1-c1ccc2c(Nc3nccc4ccccc34)c(C(N)=O)cnc2c1 | 895
20 | COc1ccc(C=NN=c2cc(C)[nH]c3ccccc23)cc1OC | 859
21 | CCC(O)c1ccc(Br)cc1NC(=O)c1cccc(Cl)c1 (stereo unspecified) | 1020
22 | CC(O)C1CCCCN1C(=O)c1ccc(-c2cccc(-c3nc4cc(F)ccc4[nH]3)c2)cc1 (stereo unspecified) | 540
23 | Cc1cccc2[nH]cc(C3CCN(CC4CCC(NC(=O)/C=C/c5ccc(Cl)c(Cl)c5)CC4)CC3)c12 (stereo unspecified) | 163
24 | Oc1ccc(Nc2nc(NCC3CCCO3)c3ccccc3n2)cc1 (stereo unspecified) | 806

Row | SMILES | XC50 [nM]
25 | CCCCCCc1c(C)nc2cc(OC)ccc2c1O | 119
26 | CCCc1ccccc1OCC(O)CN(C1CCCC1)C1CCCC1 (stereo unspecified) | 470
27 | CCCC1N=C(N)N=C(N)N1c1ccc(CC)cc1 (stereo unspecified) | 66.9
28 | CCC(C)CNC(=O)CN1CN(c2ccccc2)C2(CCN(C(=O)c3ccc(Br)cc3)CC2)C1=O (stereo unspecified) | 1070
29 | CCn1ccc2c(N3CCCC3=O)cc(C(=O)N[C@@H](Cc3ccccc3)[C@H](O)CNC3CCCCC3)cc21 | 119
30 | CN1CCN(CCCN(Cc2ccc(-c3cccc(CNC4CCCC4)c3)cc2)C(=O)Nc2ccccc2)CC1 | 1120
31 | COc1cccc(C(=O)Nc2ccc(Nc3nc(C)cc(N4CCCCC4)n3)cc2)c1OC | 1020
32 | CC1=C(C(=O)OC(C)C)C(c2ccccc2Cl)C2=C(CC(c3ccccc3)CC2=O)N1 (stereo unspecified) | 850
33 | CCNc1cc(C(=O)N[C@@H](Cc2ccccc2)[C@H](O)CNC2(CC)CC2)cc(N2CCCCS2(=O)=O)c1 | 1610
34 | Cc1noc(C)c1-c1cccc(CNCc2ccc(-c3ccc(-c4nc5ccccc5[nH]4)s3)cc2)c1 | 556
35 | COc1cc(F)c2nccc([C@@H](O)CN3CCC(NCc4cc5c(cc4F)OCCO5)CC3)c2c1 | 679
36 | Cc1cccc2nc(-c3cccc(-c4cccc(NC(=O)CN5CCN(C)CC5)c4)c3)[nH]c12 | 533
37 | O=C(NCc1ccc(Cl)c(Cl)c1)c1ccc(-c2nc3cc(F)c(F)cc3[nH]2)cc1 | 1050
38 | N#Cc1ccc2c(c1)CCN(CCC1CCC(NC(=O)/C=C/c3c[nH]c4c(Br)cccc34)CC1)CC2 (stereo unspecified) | 379
39 | COc1ccc2nccc([C@@H](O)CN3CCC(NCc4cc5cc(C)ccc5s4)CC3)c2c1 | 636
40 | O=C(Nc1ccccc1-c1ccccc1)C1CCCN1C(=O)Nc1ccc(Cl)cc1 (stereo unspecified) | 793
41 | COc1ccc(C2CC(c3cccs3)=NN2C(=O)COc2cccc3c2CCCC3O)cc1OC (stereo unspecified) | 1150
42 | Cn1c(NC(=O)C2CCC(CNC(=O)c3ccc(O)c(-c4ccc(Cl)c(Cl)c4)c3)CC2)nc2ccccc21 (stereo unspecified) | 654
43 | CCCNC(=O)Nc1cc2cc(-c3ccc(CN4CCCC4)cc3)ccc2n2c(C)nnc12 | 1500
44 | NC1=NC(c2ccccc2)N(c2ccccc2)C(N)=N1 (stereo unspecified) | 294
45 | COc1cc2nc(N3CCC(NC(=O)c4cccc(N(C)C)c4)CC3)nc(N)c2cc1OC | 614
46 | c1ccc2c(c1)ncc1c3ccccc3[nH]c21 | 866
47 | O=C(/C=C/c1ccc(Cl)c(Cl)c1)NCCCCCN1CCCC(CNS(=O)(=O)c2ccc(F)cc2)C1 (stereo unspecified) | 1160
48 | COC(=O)c1ccc(Nc2nccc(Nc3ccc(Oc4ccccc4)cc3)n2)cc1 | 1020

Row | SMILES | XC50 [nM]
49 | COc1ccc2nccc(NCC3(O)CCN(CCc4ccc5c(c4)OCCO5)CC3)c2n1 | 597
50 | Cc1[nH]c(C)c(-c2ccc(-c3ccc(OC(F)(F)F)cc3)cc2)c(=O)c1Br | 38.6
51 | CCC(ON1C(N)=NC(N)=NC1(C)C)c1ccc(Cl)cc1 (stereo unspecified) | 3.2
52 | Cc1cnc(C(=O)Nc2cccc(-c3ccc(-c4nc5cc(C(F)(F)F)ccc5[nH]4)s3)c2)cn1 | 704
53 | CCc1c(CCNCCCCCCNCCc2ccc(OC)cc2)ccc(OC)c1OC | 871
54 | CC(C)COc1ccc(Cl)cc1Cc1ccc(-c2nc3cc(CCN4CCCC4)ccc3[nH]2)o1 | 730
55 | Fc1ccc2[nH]c(-c3ccc(-c4ccc(CN5CCCCC5)cc4)s3)nc2c1 | 602
56 | Cc1cc(NC(=O)Nc2ccc3ccn(C)c3c2)c2ccccc2n1 | 214
57 | COc1ccc2nccc([C@@H](O)CN3CCC(NCCOc4ccc(F)cc4[N+](=O)[O-])CC3)c2c1 | 116
58 | O=C(Nc1cccc(F)c1)N1CCC(CN2CCOC(c3ccccc3)(c3ccccc3)C2)CC1 | 198
59 | CCCCCCCc1c(C)nc2cccc(OC)c2c1O | 1130
60 | CC(C)c1ccc(CN(C)CCCCNC(=O)c2ccc(NC(=O)c3ccc(Cl)cc3)cc2)cc1 | 994
61 | CN(C)/C(=N/C(=N)Nc1ccc(Cl)cc1)NCCCCCCN/C(=N\C(=N)Nc1ccc(Cl)cc1)N(C)C | 533
62 | COc1ccc2nc(C)cc(NCc3ccc4ccccc4c3)c2c1 | 468
63 | COc1ccc2nccc([C@@H](O)CN3CCC(NC(=O)c4ccc(OC)c(N)c4)CC3)c2c1 | 715
64 | Cc1cccc(C)c1/N=C1\NC(=S)N(c2cccc(Cl)c2)C12CCC(C(C)(C)C)CC2 (stereo unspecified) | 760
65 | COc1cc2nc(N3CCC(CNC(=O)c4ccc(-c5ccc(O)cc5)cc4)CC3)nc(N)c2cc1OC | 175
66 | CC1(C)[C@H]2CC[C@@H](CNc3nc(NCC(=O)Nc4ccc5ccccc5c4)nc(N4CCC(N5CCCC5)CC4)n3)[C@@H]1C2 | 1190
67 | N#Cc1ccc(-c2ccc(C(=O)NCCCCN3CCC(c4cc(Br)c5c(c4O)CCCC5)CC3)cc2)cc1 | 154
68 | CC(=O)c1sc(NC(=O)Nc2ccc(C)cc2C)nc1C | 906
69 | CC(C)N1CCN(C(CN2CCN(CCCOc3cccc4ccccc34)CC2)c2ccc(F)cc2)CC1 (stereo unspecified) | 879
70 | COc1ccc(Cn2c(Nc3cccc(C(F)(F)F)c3)nc3cc(C(=O)NCCCN(C)C)ccc32)cc1Cl | 913
71 | C[C@@H](Oc1cc(-n2cnc3ccc(NC(=O)CCN4CCCCC4)cc32)sc1C(N)=O)c1ccccc1Cl | 991
72 | Cn1cc(-c2ccccc2C(=O)O)c(=O)c2cc(Cl)ccc21 | 917

Row | SMILES | XC50 [nM]
73 | Nc1ncc(-c2ccsc2)cc1-c1nc2ccccc2[nH]1 | 851
74 | CC(C)CCN1CCCN(Cc2cccc(NC(=O)c3ccc(-c4ccccc4)cc3)c2)CC1 | 888
75 | Cc1c(CNCCCNc2nc3ccccc3[nH]2)[nH]c2cc(Cl)cc(Cl)c12 | 232
76 | CC[C@H]1CN2CC[C@@H]1C[C@H]2[C@H](O)c1cc(-c2ccc(F)cc2)nc2ccc(O)cc12 | 140
77 | CCN(CCCN1CCCCC1)c1cc(C)nc(Nc2ccc(C)c(Cl)c2)n1 | 207
78 | CCOc1ccc2nc3cc([N+](=O)[O-])ccc3c(N)c2c1 | 139
79 | CC(C)Sc1nc2c(c(=O)n1CCc1ccccc1)C1(CCCC1)Cc1ccccc1-2 | 347
80 | c1cncc(CNc2ncc(-c3ccsc3)c(-c3nccs3)n2)c1 | 1380
81 | COc1ccc(NC(=O)[C@H](Cc2ccccc2)Nc2cc(C)nc(NCCOc3ccccc3)n2)cc1 | 1070
82 | CC(C)CNCc1cccc(-c2cccc(CN(C(=O)Nc3ccccc3)C3CCN(Cc4ccccc4)CC3)c2)c1 | 369
83 | CCN(c1ccc(O)c(CN2CCCCC2)c1)c1ccc([N+](=O)[O-])cn1 | 886
84 | CC(C)(C)OC(=O)NCc1ccc(Nc2nnc(-c3cccc(C(=O)NCCC(c4ccccc4)c4ccccc4)c3)o2)cc1 | 581
85 | Cc1cc(N[C@@H](CC(C)C)C(=O)NCCOc2ccccc2)nc(NCCc2ccc(F)cc2)n1 | 1290
86 | CC(Oc1ccc(C(=O)c2ccc(F)cc2)cc1)C(=O)N1CCc2ccccc21 (stereo unspecified) | 413
87 | COc1ccc(NC(=O)Nc2ccc(-c3cccc(-c4nc5ccccc5[nH]4)c3)cc2)cc1 | 764
88 | C#CCN(Cc1cc2c(=O)[nH]c(N)nc2cc1C)c1ccc(C(=O)N[C@@H](CCC(=O)O)C(=O)O)cc1 | 625
89 | COc1cccc(C(=O)NCCc2cccc(Cl)c2)c1Oc1ccccc1 | 844
90 | O=c1cc(NCCCNC2CCCc3c2cc(Cl)c(Cl)c3Cl)[nH]c2ccccc12 (stereo unspecified) | 276
91 | CN(C)C(CNC(=O)c1cc(-c2ccncc2)c(-c2ccc(Cl)c(O)c2)o1)c1ccccc1 (stereo unspecified) | 843
92 | O=[N+]([O-])c1ccc(C2=NN(S(=O)(=O)c3c(Cl)cc(Cl)cc3Cl)CCCC2)cc1 | 125
93 | COc1c(C2CCN(CCCCNC(=O)c3cc(-c4ccc(Cl)cc4)[nH]c3C)CC2)ccc2c1CCCC2 | 970
94 | Cc1cc(N2Cc3ccccc3C2)nc(Nc2ccc(S(=O)(=O)N3CCOCC3)cc2)n1 | 1110
95 | COc1cc2nc(SCC(C)C)n(CCCn3ccnc3)c(=N)c2cc1OC | 610
96 | COc1cc2c(cc1C(F)(F)F)N(C(=O)Nc1cc(F)c(F)c(-c3cccnc3)c1)CC2 | 626
